Measurements taken from patent US9409922B2, “Imidazopyridine macrocycles as inhibitors of human immunodeficiency virus replication” (priority 2014, dated 2016).

Tested on: NL-RLuc virus
Assay: Inhibition of HIV replication: NL-RLuc reporter virus in MT-2 cells, luciferase readout
Assay type: cell-based
Details: Human immunodeficiency virus 1, MT2, 120 h, MT-2 cells infected with NL-RLuc virus, 5 days of incubation, 10% FBS, at least 2 experiments
Procedure, shortened: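 Renilla luciferase reporter virus (NL4-3 nef replaced), produced in 293T cells, infected MT-2 cells with serial compound dilutions for 5 days in RPMI 1640 with 10% FBS, 10 mM HEPES pH 7.55. Luciferase measured; EC50 from median effect equation, at least 2 experiments.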

Row | SMILES | EC50 [nM]
1 | Cc1cc2c(cc1F)-c1cccc(c1)-c1cn3c(c([C@H](OC(C)(C)C)C(=O)O)c(C)c(C)c3n1)N1CCC(C)(CC1)OCCCC[C@H](C)O2 [Example 30, (2S)-2-(tert-Butoxy)-2-[(22S)-17-fluoro-4,5,18,22,28-pentamethyl-21,27-dioxa-1,7,34-triazahexacyclo[26.2.2.1^6,^9.1^10,^14.0^2,^7.0^15,^20]tetratriaconta-2,4,6(34),8,10(33),11,13,15(20),16,18-decaen-3-yl]acetic acid] | 21
2 | Cc1cc2c(cc1F)-c1cccc(c1)-c1nc3cc(C)c([C@H](OC(C)(C)C)C(=O)O)c(n3c1Cl)N1CCC(C)(CC1)OCCCC[C@H](C)O2 [Example 24, (2S)-2-(tert-Butoxy)-2-[(22S)-8-chloro-17-fluoro-4,18,22,28-tetramethyl-21,27-dioxa-1,7,34-triazahexacyclo[26.2.2.1^6,^9.1^10,^14.0^2,^7.0^15,^20]tetratriaconta-2,4,6(34),8,10(33),11,13,15(20),16,18-decaen-3-yl]acetic acid] | 20
3 | Cc1ccc2c(c1)-c1cccc(c1)-c1cn3c(c([C@H](OC(C)(C)C)C(=O)O)c(C)cc3n1)N1CCC(C)(CC1)OCCCC[C@H](C)O2 [Example 8, (2S)-2-(tert-Butoxy)-2-[(22S)-4,17,22,28-tetramethyl-21,27-dioxa-1,7,34-triazahexacyclo[26.2.2.1^6,^9.1^10,^14.0^2,^7.0^15,^20]tetratriaconta-2,4,6(34),8,10(33),11,13,15(20),16,18-decaen-3-yl]acetic acid] | 15
4 | Cc1cc2nc3cn2c(c1[C@H](OC(C)(C)C)C(=O)O)N1CCC(C)(CC1)OCCCCCOc1ccccc1Cc1nnc-3o1 [Example 4, (2S)-2-(tert-Butoxy)-2-{4,28-dimethyl-21,27,33-trioxa-1,7,11,12,34-pentaazahexacyclo[26.2.2.1^6,^9.1^10,^13.0^2,^7.0^15,^20]tetratriaconta-2,4,6(34),8,10,12,15(20),16,18-nonaen-3-yl}acetic acid] | 10
5 | Cc1cc2c(cc1F)-c1cccc(c1)-c1nc3cc(C)c([C@H](OC(C)(C)C)C(=O)O)c(n3c1Br)N1CCC(C)(CC1)OCCCC[C@H](C)O2 [Example 27, (2S)-2-[(22S)-8-Bromo-17-fluoro-4,18,22,28-tetramethyl-21,27-dioxa-1,7,34-triazahexacyclo[26.2.2.1^6,^9.1^10,^14.0^2,^7.0^15,^20]tetratriaconta-2,4,6(34),8,10(33),11,13,15(20),16,18-decaen-3-yl]-2-(tert-butoxy)acetic acid] | 13
6 | Cc1cc2nc3cn2c(c1[C@H](OC(C)(C)C)C(=O)O)N1CCC(C)(CC1)OCCCC[C@H](C)Oc1cc(F)ccc1-c1cccc-3c1 [Example 7, (2S)-2-(tert-Butoxy)-2-[(22S)-4,17,22,28-tetramethyl-21,27-dioxa-1,7,34-triazahexacyclo[26.2.2.1^6,^9.1^10,^14.0^2,^7.0^15,^20]tetratriaconta-2,4,6(34),8,10(33),11,13,15(20),16,18-decaen-3-yl]acetic acid] | 5
7 | Cc1cc2c(cc1C)-c1cccc(c1)-c1cn3c(c([C@H](OC(C)(C)C)C(=O)O)c(C)cc3n1)N1CCC(C)(CC1)OC/C=C\C[C@H](C)O2 [Example 18, (2S)-2-(tert-Butoxy)-2-[(22S)-4,17,18,22,28-pentamethyl-21,27-dioxa-1,7,34-triazahexacyclo[26.2.2.1^6,^9.1^10,^14.0^2,^7.0^15,^20]tetratriaconta-2,4,6(34),8,10(33),11,13,15(20),16,18,24-undecaen-3-yl]acetic acid] | 8
8 | Cc1cc(F)c2c(c1)O[C@@H](C)CCCCOC1(C)CCN(CC1)c1c([C@H](OC(C)(C)C)C(=O)O)c(C)cc3nc(cn13)-c1cccc-2c1 [Example 21, (2S)-2-(tert-Butoxy)-2-[(22S)-16-fluoro-4,18,22,28-tetramethyl-21,27-dioxa-1,7,34-triazahexacyclo[26.2.2.1^6,^9.1^10,^14.0^2,^7.0^15,^20]tetratriaconta-2,4,6(34),8,10(33),11,13,15(20),16,18-decaen-3-yl]acetic acid] | 5
